± gives the expanded uncertainty stated by the source.
Test: xn = mol fraction of the nth substance listed
Conditions: 101 kPa, Liquid; for mass density: Vibrating tube method; for speed of sound: Pulse-echo method

ClCCCCCCCl [1,6-dichlorohexane] + CCCCCCCCCCCC
Conditions | mass density [kg/m3] | speed of sound [m/s]
303.15 K, x1 = 0.0498 | 751.5 ± 0.34 | –
303.15 K, x1 = 0.1003 | 761.96 ± 0.33 | –
303.15 K, x1 = 0.1497 | 772.7 ± 0.33 | –
303.15 K, x1 = 0.2527 | 796.64 ± 0.32 | –
303.15 K, x1 = 0.4017 | 835.16 ± 0.32 | –
303.15 K, x1 = 0.502 | 864.08 ± 0.31 | –
303.15 K, x1 = 0.6 | 895.24 ± 0.31 | –
303.15 K, x1 = 0.7011 | 930.52 ± 0.3 | –
303.15 K, x1 = 0.7986 | 968.02 ± 0.3 | –
303.15 K, x1 = 0.8998 | 1011.2 ± 0.29 | –
303.15 K, x1 = 0.9493 | 1034.18 ± 0.29 | –
303.15 K, x1 = 0.9691 | 1043.71 ± 0.29 | –
303.15 K, x1 = 1 | 1059 ± 0.29 | –
308.15 K, x1 = 0.0498 | 747.81 ± 0.33 | 1238.5 ± 1
308.15 K, x1 = 0.1003 | 758.26 ± 0.33 | 1237.4 ± 1
308.15 K, x1 = 0.1497 | 768.93 ± 0.33 | 1236.6 ± 0.99
308.15 K, x1 = 0.2527 | 792.76 ± 0.32 | 1236 ± 0.96
308.15 K, x1 = 0.4017 | 831.14 ± 0.32 | 1237.6 ± 0.93
308.15 K, x1 = 0.502 | 859.96 ± 0.31 | 1240.5 ± 0.91
308.15 K, x1 = 0.6 | 891.01 ± 0.3 | 1245 ± 0.89
308.15 K, x1 = 0.7011 | 926.17 ± 0.3 | 1251.3 ± 0.87
308.15 K, x1 = 0.7986 | 963.55 ± 0.3 | 1259.3 ± 0.85
308.15 K, x1 = 0.8998 | 1006.61 ± 0.29 | 1269.8 ± 0.84
308.15 K, x1 = 0.9493 | 1029.52 ± 0.29 | 1276 ± 0.83
308.15 K, x1 = 0.9691 | 1039 ± 0.29 | 1278.5 ± 0.83
308.15 K, x1 = 1 | 1054.25 ± 0.29 | 1282.7 ± 0.82
313.15 K, x1 = 0.0498 | 744.13 ± 0.33 | 1219.6 ± 1
313.15 K, x1 = 0.1003 | 754.53 ± 0.33 | 1218.5 ± 0.99
313.15 K, x1 = 0.1497 | 765.15 ± 0.33 | 1217.9 ± 0.98
313.15 K, x1 = 0.2527 | 788.89 ± 0.32 | 1217.5 ± 0.96
313.15 K, x1 = 0.4017 | 827.13 ± 0.31 | 1219.3 ± 0.93
313.15 K, x1 = 0.502 | 855.84 ± 0.31 | 1222.4 ± 0.9
313.15 K, x1 = 0.6 | 886.78 ± 0.3 | 1227 ± 0.88
313.15 K, x1 = 0.7011 | 921.82 ± 0.3 | 1233.6 ± 0.87
313.15 K, x1 = 0.7986 | 959.07 ± 0.29 | 1241.8 ± 0.85
313.15 K, x1 = 0.8998 | 1002 ± 0.29 | 1252.5 ± 0.83
313.15 K, x1 = 0.9493 | 1024.85 ± 0.29 | 1258.8 ± 0.82
313.15 K, x1 = 0.9691 | 1034.3 ± 0.29 | 1261.3 ± 0.82
313.15 K, x1 = 1 | 1049.5 ± 0.29 | 1265.7 ± 0.82
318.15 K, x1 = 0.0498 | 740.46 ± 0.33 | 1200.9 ± 1
318.15 K, x1 = 0.1003 | 750.82 ± 0.33 | 1199.9 ± 0.99
318.15 K, x1 = 0.1497 | 761.37 ± 0.33 | 1199.3 ± 0.98
318.15 K, x1 = 0.2527 | 785.03 ± 0.32 | 1199 ± 0.95
318.15 K, x1 = 0.4017 | 823.12 ± 0.31 | 1201.2 ± 0.92
318.15 K, x1 = 0.502 | 851.72 ± 0.31 | 1204.4 ± 0.9
318.15 K, x1 = 0.6 | 882.55 ± 0.3 | 1209.2 ± 0.88
318.15 K, x1 = 0.7011 | 917.48 ± 0.3 | 1216 ± 0.86
318.15 K, x1 = 0.7986 | 954.61 ± 0.29 | 1224.3 ± 0.84
318.15 K, x1 = 0.8998 | 997.44 ± 0.29 | 1235.3 ± 0.83
318.15 K, x1 = 0.9493 | 1020.2 ± 0.29 | 1241.7 ± 0.82
318.15 K, x1 = 0.9691 | 1029.61 ± 0.29 | 1244.3 ± 0.82
318.15 K, x1 = 1 | 1044.78 ± 0.28 | 1248.7 ± 0.81
323.15 K, x1 = 0.0498 | 736.76 ± 0.33 | 1182.4 ± 1
323.15 K, x1 = 0.1003 | 747.09 ± 0.33 | 1181.4 ± 0.98
323.15 K, x1 = 0.1497 | 757.6 ± 0.33 | 1180.9 ± 0.97
323.15 K, x1 = 0.2527 | 781.15 ± 0.32 | 1180.8 ± 0.95
323.15 K, x1 = 0.4017 | 819.09 ± 0.31 | 1183.1 ± 0.92
323.15 K, x1 = 0.502 | 847.59 ± 0.31 | 1186.5 ± 0.89
323.15 K, x1 = 0.6 | 878.32 ± 0.3 | 1191.6 ± 0.88
323.15 K, x1 = 0.7011 | 913.12 ± 0.3 | 1198.5 ± 0.86
323.15 K, x1 = 0.7986 | 950.13 ± 0.29 | 1207 ± 0.84
323.15 K, x1 = 0.8998 | 992.83 ± 0.29 | 1218.2 ± 0.82
323.15 K, x1 = 0.9493 | 1015.52 ± 0.29 | 1224.7 ± 0.81
323.15 K, x1 = 0.9691 | 1024.9 ± 0.29 | 1227.4 ± 0.81
323.15 K, x1 = 1 | 1040.03 ± 0.28 | 1231.8 ± 0.81
328.15 K, x1 = 0.0498 | 733.07 ± 0.33 | 1163.9 ± 0.99
328.15 K, x1 = 0.1003 | 743.36 ± 0.33 | 1163 ± 0.98
328.15 K, x1 = 0.1497 | 753.83 ± 0.33 | 1162.6 ± 0.97
328.15 K, x1 = 0.2527 | 777.28 ± 0.32 | 1162.6 ± 0.94
328.15 K, x1 = 0.4017 | 815.09 ± 0.31 | 1165.2 ± 0.91
328.15 K, x1 = 0.502 | 843.49 ± 0.31 | 1168.8 ± 0.89
328.15 K, x1 = 0.6 | 874.11 ± 0.3 | 1174 ± 0.87
328.15 K, x1 = 0.7011 | 908.81 ± 0.3 | 1181.1 ± 0.85
328.15 K, x1 = 0.7986 | 945.71 ± 0.29 | 1189.9 ± 0.83
328.15 K, x1 = 0.8998 | 988.3 ± 0.29 | 1201.2 ± 0.82
328.15 K, x1 = 0.9493 | 1010.92 ± 0.29 | 1207.8 ± 0.81
328.15 K, x1 = 0.9691 | 1020.27 ± 0.29 | 1210.5 ± 0.81
328.15 K, x1 = 1 | 1035.37 ± 0.28 | 1215.1 ± 0.8

Reference: the NIST ThermoML archive (doi:10.1021/je034177v)
